Patent publication US20220087987A1, “A METHOD FOR TREATING SWI/SNF COMPLEX-DEFICIENT CANCERS COMPRISING GLUTATHIONE (GSH) METABOLIC PATHWAY INHIBITOR” (National Cancer Center, priority 2018, published 2022)
Where a name gives a salt, the structure may show the parent alone. Read-outs that look alike come from different tables or passages of the source.

What was measured:
[1] = Drug library screen, cell viability (CellTiter-Glo); format: cell-based, human; settings: human
How it was run: (§1)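 Luminescent ATP read-out (CellTiter-Glo) at day 5, normalised to solvent (DMSO) controls, in paired HCT116 lines, ARID1A knockout versus wild type. Candidates selected where KO cells fell below 40% viability and WT cells stayed above 80%.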

ARID1A-KO HCT116 cells = experiment: as above; format: cell-based, human; settings: Homo sapiens, HCT-116, 120 h, read-out: Cell viability, KO
How it was run: as §1

[2] = HCT116 ARID1A-WT, 10 μM for 5 days, relative to cells treated with solvent (DMSO), read-out: Cell viability, WT
[3] = HCT116 ARID1A-KO, 10 μM for 5 days, relative to cells treated with solvent (DMSO)

Compound | viability at 5 days, 10 μM [1] [%] | viability at 10 µM (ARID1A-KO HCT116 cells) [%] | viability at 5 days, 10 μM [1, 2] [%] | viability at 10 µM (ARID1A-KO HCT116 cells; [3]) [%] | viability [1, 2] [%]
CO[C@@H]1C[C@@H](C[C@H]2CC[C@H](C)[C@H]([C@@H](C)C(=O)O)O2)O[C@]2(O[C@](C)([C@H]3CC[C@@](C)([C@@H]4O[C@@H]([C@H]5O[C@@](O)(CO)[C@H](C)C[C@@H]5C)C[C@@H]4C)O3)C[C@H]2C)[C@@H]1C [Nigericin] | 3.47 | 4.01 | – | – | –
CS(=O)(=O)CCNCc1ccc(-c2ccc3ncnc(Nc4ccc(OCc5cccc(F)c5)c(Cl)c4)c3c2)o1 [lapatinib] | – | – | 52.7 | 78.4 | –
Cc1c[nH]c(-c2cnc(NCCNc3ccc(C#N)cn3)nc2-c2ccc(Cl)cc2Cl)n1 [CT99021] | – | – | 63.8 | 73.5 | –
NC1=N/C(=C2/CCNC(=O)c3[nH]ccc32)C(=O)N1 [Debromohymenialdisine (DBH), Debromohymenialdisine] | – | – | 62.9 | 72.2 | –
O=C1CCC(N2C(=O)c3ccccc3C2=O)C(=O)N1 (stereo not drawn) [thalidomide] | – | – | 95 | 107 | –
CCOC(=O)C(C)(C)Oc1ccc(Cl)cc1 [Clofibrate] | – | – | 110 | 111 | –
CCn1cc(C(=O)O)c(=O)c2ccc(C)nc21 [Nalidixic acid] | – | – | 102 | 97.5 | –
COc1cccc2c1C(=O)c1c(O)c3c(c(O)c1C2=O)C[C@@](O)(C(=O)CO)C[C@@H]3O[C@H]1C[C@H](N)[C@H](O)[C@H](C)O1 [Doxorubicin, HCl] | – | – | 4.81 | 4.14 | –
OC[C@H]1NC[C@H](O)[C@@H](O)[C@@H]1O [Deoxynojirimycin] | – | – | 106 | 121 | –
C[C@H](NC(=O)/C(C#N)=C/c1cccc(Br)n1)c1ccccc1 [WP1066] | – | – | 15.3 | 20 | –
CC(C)C[C@H](NC(=O)[C@H](Cc1ccccc1)NC(=O)c1cnccn1)B(O)O [bortezomib] | – | – | 3.06 | 5.81 | –
CC(=O)N[C@@H](CSC(=O)[C@]1([C@@H](O)C(C)C)NC(=O)[C@H](C)[C@@H]1O)C(=O)O [Lactacystin] | – | – | 32.6 | 26.1 | –
Cc1ccc(Nc2nccc(N(C)c3ccc4c(C)n(C)nc4c3)n2)cc1S(N)(=O)=O [pazopanib] | – | – | 19.8 | 39.8 | –
COC[C@H]1OC(=O)c2coc3c2[C@@]1(C)C1=C(C3=O)[C@@H]2CCC(=O)[C@@]2(C)C[C@H]1OC(C)=O [Wortmannin] | – | – | 181 | 116 | –
O=C(c1cc(Cc2n[nH]c(=O)c3ccccc23)ccc1F)N1CCN(C(=O)C2CC2)CC1 [Olaparib] | – | – | 20.9 | 19.5 | –
CC(=O)O[C@H]1C(=O)[C@@]2(C)[C@H]([C@H](OC(=O)c3ccccc3)[C@]3(O)C[C@H](OC(=O)[C@H](O)[C@@H](NC(=O)c4ccccc4)c4ccccc4)C(C)=C1C3(C)C)[C@]1(OC(C)=O)CO[C@@H]1C[C@@H]2O [Paclitaxel] | – | – | 4.91 | 6.42 | –
C[C@H]1O[C@@H](n2cnc3c(N)ncnc32)C[C@@H]1O [2′,5′-dideoxyadenosine] | – | – | – | 172 | 198
O=C(O)c1ccccc1Nc1ccccc1 [N-phenylanthranilic acid] | – | – | 101 | 118 | –
CC[C@]1(O)C[C@@H]2CN(CCc3c([nH]c4ccccc34)[C@@](C(=O)OC)(c3cc4c(cc3OC)N(C)[C@H]3[C@@](O)(C(=O)OC)[C@H](OC(C)=O)[C@]5(CC)C=CCN6CC[C@]43[C@@H]65)C2)C1 [Vinblastine sulfate] | – | – | 2.73 | 4.49 | –
C=C(C)[C@H]1Cc2c(ccc3c2O[C@@H]2COc4cc(OC)c(OC)cc4[C@@H]2C3=O)O1 [Rotenone] | – | – | – | 6.99 | 5.52
O=C(CCCCCN1C(=O)c2cccc3cccc(c23)C1=O)NO [Scriptaid] | – | – | 6.95 | 5.74 | –
